Series [1] concerns the target recombinant hDHODH (Homo sapiens (Human), UniProt Q02127). The experiment in a line: hDHODH inhibition assay (DCIP reduction). Type of series: biochemical.
A short description of series [2]: Solubility assay at pH 7.4 in PBS. Particulars: for Solubility in PBS: pH 7.4; for solubility at 24 h: 25 °C, pH 7.4, aqueous buffer, thermodynamic from solid. Type of series: physicochemical.
Protocol: Solubility assay at pH 7.4. […] The samples were shaken in an orbital shaker at 25° C. for 24 h. These suspensions were filtered through a PTFE 0.45 μm filter (VWR), and the solutions were chromatographically analyzed using a Perkin Elmer Ultra High Performance Liquid Chromatography (UHPLC) instrument, equipped with a reverse-phase (RP) C18 Phenomenex column (2.1×100 mm, 1.7 μm particle size). Gradient elution: the ratio of eluents A and B (0.1% trifluoroacetic acid in water and 0.1% trifluoroacetic acid in acetonitrile, respectively) changed linearly from 60% A-40% B to 0% A-100% B in 12 minutes, followed by 5 minutes in isocratic elution at 100% of eluent B and then 4 minutes in equilibration elution to reset the starting conditions. The flow rate was 0.5 mL/min. Standard injection volumes were either 2 or 4 μl for poorly soluble compounds. The detection system was a Perkin Elmer diode-array-detector. The wavelengths that were monitored for each compound were defined according to the compound's own absorption spectrum. Solubility, expressed as μM concentration of the saturated solution, was calculated via interpolation with external calibration curves that were obtained with solutions of each compound in acetonitrile.
The conditions of series [3]: pH 7.4.
Protocol: Lipophilicity. The shake flask method was chosen to determinate logD7.4.
The partition coefficients between n-octanol and PBS at pH 7.4 (log D^7.4) were obtained using the shake-flask technique at room temperature. In the shake-flask experiments, 50 mM of phosphate buffered saline pH 7.4 was used as the aqueous phase. The organic (n-octanol) and aqueous phases were mutually saturated by shaking for 4 h. The compounds were solubilized in the buffered aqueous phase at the highest concentration compatible with solubility and appropriate amounts of n-octanol were added. The two phases were shaken for about 20 min, by which time the partitioning equilibrium of solutes had been reached, and then centrifuged (10000 rpm, 10 min).
Setting [4] is: recombinant GST-hDHODH, means ± SE of three independent experiments, read-out: hDHODH IC50 ± SE.
Where [5] appears, read: recombinant GST-hDHODH, means ± SE of three independent experiments.

Values after ≈ are worked out from the molar mass of the structure shown. Where two headings read alike, the source gives them in different places.

recombinant hDHODH, sequence (Q02127 whole entry): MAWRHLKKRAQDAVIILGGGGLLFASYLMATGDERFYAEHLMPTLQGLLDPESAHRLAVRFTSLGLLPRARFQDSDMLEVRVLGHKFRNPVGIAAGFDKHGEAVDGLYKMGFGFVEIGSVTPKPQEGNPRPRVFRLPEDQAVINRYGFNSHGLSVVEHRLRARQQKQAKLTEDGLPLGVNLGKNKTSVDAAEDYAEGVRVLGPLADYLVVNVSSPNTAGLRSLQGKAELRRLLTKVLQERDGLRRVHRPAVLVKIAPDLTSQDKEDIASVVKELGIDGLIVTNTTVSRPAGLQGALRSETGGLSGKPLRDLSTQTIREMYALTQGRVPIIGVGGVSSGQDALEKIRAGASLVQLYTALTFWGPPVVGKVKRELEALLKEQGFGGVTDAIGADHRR

In the case of `Cc1cccc2c(C(=O)Nc3c(F)c(F)c(-c4ccccc4)c(F)c3F)c(O)nn12` [Compound 2], the IC50 in series [1] (setting [4]) came out at 4.3 nM.
For the compound `O=C(Nc1c(F)c(F)c(-c2ccccc2)c(F)c1F)c1c(O)nn2c(Cl)cccc12` [Compound 4, 7-Chloro-2-hydroxy-N-(2,3,5,6-tetrafluoro-[1,1′-biphenyl]-4-yl)pyrazolo[1,5-a]pyridine-3-carboxamide], the 50% inhibitory concentration (IC50) in series [1] (setting [4]) amounted to 3.4 nM. Besides, in series [2], the “Solubility in PBS” value is reported as “<LOD”. Further, in series [3], the “Log D7.4 ± SD” value came out at 2.81 ± 0.13.
On to `O=C(Nc1c(F)c(F)c(N2CCOCC2)c(F)c1F)c1c(O)nn2ccccc12` [Compound 6, 2-Hydroxy-N-(2,3,5,6-tetrafluoro-4-morpholinophenyl)pyrazolo[1,5-a]pyridine-3-carboxamide], for which, in series [1] (setting [4]), the concentration for half-maximal inhibition (IC50) was determined as 90.9 nM. Also, the concentration in solution in series [2] (solubility at 24 h) was 438 µM (≈ 180 µg/mL). In addition, the “Log D7.4 ± SD” value in series [3] turned out to be 0.66 ± 0.08.
As for `O=C(Nc1c(F)c(F)c(-c2cccs2)c(F)c1F)c1c(O)nn2ccccc12` [Compound 7, 2-Hydroxy-N-(2,3,5,6-tetrafluoro-4-(thiophen-2-yl)phenyl)pyrazolo[1,5-a]pyridine-3-carboxamide], the half-maximal inhibitory concentration (IC50) in series [1] (setting [4]) was determined as 1.35 ± 0.45 nM.
With `O=C(Nc1c(F)c(F)c(-c2cccnc2)c(F)c1F)c1c(O)nn2ccccc12` [Compound 8, 2-Hydroxy-N-(2,3,5,6-tetrafluoro-4-(pyridin-3-yl)phenyl)pyrazolo[1,5-a]pyridine-3-carboxamide], the half-inhibitory concentration (IC50) in series [1] (setting [4]) came out at 6.23 nM. For the same compound, in series [3], the “Log D7.4 ± SD” value was 0.98 ± 0.03.
For the compound `O=C(Nc1c(F)c(F)c(-c2ccc(F)cc2)c(F)c1F)c1c(O)nn2ccccc12` [Compound 10, 2-Hydroxy-N-(2,3,4′,5,6-pentafluoro-[1,1′-biphenyl]-4-yl)pyrazolo[1,5-a]pyridine-3-carboxamide], the concentration for half-maximal inhibition (IC50) in series [1] (setting [4]) worked out at 17.7 nM. Besides, the “Solubility in PBS” value in series [2] is listed as “<LOD”. Further, in series [3], the “Log D7.4 ± SD” value is reported as “Insoluble”.
The matching figures for `O=C(Nc1c(F)c(F)c(-c2cccc(F)c2)c(F)c1F)c1c(O)nn2ccccc12` [Compound 11, 2-Hydroxy-N-(2,3,3′,5,6-pentafluoro-[1,1′-biphenyl]-4-yl)pyrazolo[1,5-a]pyridine-3-carboxamide]: 2.03 nM, “<LOD” and 2.09 ± 0.04.
For the compound `O=C(Nc1c(F)c(F)c(-c2ccc(C(F)(F)F)cc2)c(F)c1F)c1c(O)nn2ccccc12` [Compound 12, 2-Hydroxy-N-(2,3,5,6-tetrafluoro-4′-(trifluoromethyl)-[1,1′-biphenyl]-4-yl)pyrazolo[1,5-a]pyridine-3-carboxamide], in series [1] (setting [4]), the IC50 amounted to 71.8 nM. Besides, the “Solubility in PBS” value in series [2] is reported as “<LOD”. In series [3], the “Log D7.4 ± SD” value is “Insoluble”.
`O=C(Nc1c(F)c(F)c(-c2cccc(C(F)(F)F)c2)c(F)c1F)c1c(O)nn2ccccc12` [Compound 13, 2-Hydroxy-N-(2,3,5,6-tetrafluoro-3′-(trifluoromethyl)-[1,1′-biphenyl]-4-yl)pyrazolo[1,5-a]pyridine-3-carboxamide]: the 50% inhibitory concentration (IC50) in series [1] (setting [4]) was 6.34 ± 0.63 nM. For the same compound, the “Solubility in PBS” value in series [2] is on record as “<LOD”. The “Log D7.4 ± SD” value in series [3] is 2.69 ± 0.03.
As to `O=C(Nc1c(F)c(F)c(-c2cccc(O)c2)c(F)c1F)c1c(O)nn2ccccc12` [Compound 14, 2-Hydroxy-N-(2,3,5,6-tetrafluoro-3′-hydroxy-[1,1′-biphenyl]-4-yl)pyrazolo[1,5-a]pyridine-3-carboxamide], the IC50 in series [1] (setting [4]) stood at 2.78 ± 0.32 nM. Moreover, the solubility at 24 h in series [2] was 55 µM (≈ 23 µg/mL). The “Log D7.4 ± SD” value in series [3] is 1.82 ± 0.09.
As for `COc1cccc(-c2c(F)c(F)c(NC(=O)c3c(O)nn4ccccc34)c(F)c2F)c1` [Compound 16, 2-Hydroxy-N-(2,3,5,6-tetrafluoro-3′-methoxy-[1,1′-biphenyl]-4-yl)pyrazolo[1,5-a]pyridine-3-carboxamide], the IC50 in series [1] (setting [4]) amounted to 2.75 ± 0.31 nM.
On to `Cc1cc(Oc2ccccc2)c(C)cc1NC(=O)c1c(O)nn2ccccc12` [Compound 18], for which, in series [1] (setting [4]), the half-inhibitory concentration (IC50) is 43 ± 5 nM.
Consider `O=C(Nc1ccc(Oc2ccccc2)cn1)c1c(O)nn2ccccc12` [Compound 23, 2-Hydroxy-N-(5-phenoxypiridin-2-yl)pyrazolo[1,5-a]pyridine-3-carboxamide], for which, in series [1] (setting [4]), the IC50 turned out to be 12000 ± 1000 nM.
On to `O=C(Nc1ccc(Oc2cccc(C(F)(F)F)c2)cn1)c1c(O)nn2ccccc12` [Compound 24, 2-Hydroxy-N-5-[3-(trifluoromethyl)phenoxy]piridin-2-ylpyrazolo[1,5-a]pyridine-3-carboxamide], for which, in series [1] (setting [4]), the IC50 is > 10000 nM.
Consider `Cc1cc(NC(=O)c2c(O)nn3ccccc23)ccc1Oc1ccccc1` [Compound 27], for which, in series [1] (setting [4]), the IC50 came to 480 ± 31 nM.
On to `Cc1cc(NC(=O)c2c(O)nn3ccccc23)c(OC(C)C)cc1Oc1ccccc1` [Compound 31, 2-Hydroxy-N-(2-isopropoxy-5-methyl-4-phenoxyphenyl)pyrazolo[1,5-a]pyridine-3-carboxamide], for which the IC50 in series [1] (setting [4]) is 5200 ± 924 nM.
Take `Cc1cc(NC(=O)c2c(O)nn3ccccc23)c(OC2CCC2)cc1Oc1ccccc1` [Compound 32, N-(2-cyclobutoxy-5-methyl-4-phenoxyphenyl)-2-hydroxypyrazolo[1,5-a]pyridine-3-carboxamide]: the IC50 in series [1] (setting [4]) was > 10000 nM.
On to `CCC(C)Oc1cc(Oc2ccccc2)c(C)cc1NC(=O)c1c(O)nn2ccccc12` (stereo not shown) [Compound 33, N-(2-(Sec-butoxy)-5-methyl-4-phenoxyphenyl)-2-hydroxypyrazolo[1,5-a]pyridine-3-carboxamide], for which, in series [1] (setting [4]), the IC50 amounted to 3940 ± 797 nM.
For the compound `CCCC(C)Oc1cc(Oc2ccccc2)c(C)cc1NC(=O)c1c(O)nn2ccccc12` (stereo not shown) [Compound 34, 2-Hydroxy-N-(5-methyl-2-(pentan-2-yloxy)-4-phenoxyphenyl) pyrazolo[1,5-a]pyridine-3-carboxamide], the IC50 in series [1] (setting [4]) came to 2210 ± 346 nM.
For the compound `CCC(CC)Oc1cc(Oc2ccccc2)c(C)cc1NC(=O)c1c(O)nn2ccccc12` [Compound 35, 2-Hydroxy-N-(5-methyl-2-(pentan-3-yloxy)-4-phenoxyphenyl)pyrazolo[1,5-a]pyridine-3-carboxamide], the IC50 in series [1] was 6980 ± 1010 nM.
As for `Oc1nn2ccccc2c1/N=N/c1ccc(Oc2ccccc2)cc1` [Compound 38, (E)-3-((4-phenoxyphenyl)diazinyl)pyrazolo[1,5-a]pyridin-2-ol], the “hDHODH IC50 ± SE” value in series [1] (setting [5]) is listed as “Inactive at 1 microM”.
Consider `Oc1nn2ccccc2c1-c1nnc(-c2c(F)c(F)c(-c3ccccc3)c(F)c2F)o1` [Compound 39, 3-(5-(2,3,5,6-Tetrafluoro-[1,1′-biphenyl]-4-yl)-1,3,4-oxadiazol-2-yl) pyrazolo [1,5-a]pyridine-2-ol], for which the “hDHODH IC50 ± SE” value in series [1] (setting [5]) was “Inactive at 1 microM”.
As to `CC(=O)COc1cccc(-c2c(F)c(F)c(NC(=O)c3c(O)nn4ccccc34)c(F)c2F)c1` [Compound 41, 2-Hydroxy-N-(2,3,5,6-tetrafluoro-3′-(2-oxopropoxy)-[1,1′-biphenyl]-4-yl) pyrazolo [1,5-a]pyridine-3-carboxamide], the IC50 in series [1] (setting [4]) is 0.82 ± 0.1 nM.
Take `O=C(Nc1c(F)c(F)c(-c2cccc(OCCCO)c2)c(F)c1F)c1c(O)nn2ccccc12` [Compound 42, 2-Hydroxy-N-(2,3,5,6-tetrafluoro-3′-(3-hydroxypropoxy)-[1,1′-biphenyl]-4-yl) pyrazolo[1,5-a]pyridine-3-carboxamide]: in series [1] (setting [4]), the IC50 worked out at 3.29 ± 0.33 nM.
Turning to `CC(O)COc1cccc(-c2c(F)c(F)c(NC(=O)c3c(O)nn4ccccc34)c(F)c2F)c1` (stereo not shown) [Compound 43, 2-Hydroxy-N-(2,3,5,6-tetrafluoro-3′-(2-hydroxypropoxy)-[1,1′-biphenyl]-4-yl) pyrazolo[1,5-a]pyridine-3-carboxamide], the half-maximal inhibitory concentration (IC50) in series [1] (setting [4]) is 2.5 ± 0.2 nM.

The record behind these values is patent publication US20240034730A1, “PYRAZOLO DERIVATIVES AS HUMAN DIHYDROOROTATE DEHYDROGENASE (HDHODH) INHIBITORS FOR USE AS ANTIVIRALS” (DRUG DISCOVERY AND CLINIC S.R.L., priority 2020, published 2024).
